Data reported in patent US20080009418A1, “Selective Inhibitors” (Alchemia LTD., priority 2004, published 2008).

How the values were obtained:
Human δ-opioid (DOP) = biological target: T1, Human δ-opioid (DOP) (Homo sapiens, UniProt P41143); assay: Radioligand binding, human δ-opioid (DOP) membranes, FlashPlate, [3H]-Bremazocine; conditions: compound at 10 μM; [3H]-Bremazocine
T1 construct: purchased Perkin Elmer Biosignal
Summary of the method: (§1)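 Cloned human receptor membranes were coated onto FlashPlate wells and incubated with radioligand and compound (added from a 0.5 mM DMSO daughter plate) for 1 hour at room temperature in the dark. Scintillation counting gave percent inhibition, with DMSO defining total and reference ligand defining non-specific binding.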

Human κ-Opioid (KOP) = biological target: T2, Human κ-Opioid (KOP) (Homo sapiens, UniProt P41145); assay: Radioligand binding, human κ-opioid (KOP) membranes, filtration, [3H]-Diprenorphine; conditions: compound at 10 μM; [3H]-Diprenorphine
T2 construct: purchased Perkin Elmer Biosignal
Summary of the method: (§2)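 Percent inhibition of radioligand binding measured on recombinant human membranes: NK1 with [125I]-Substance P, KOP with [3H]-Diprenorphine. Incubation 1 h at room temperature, then harvest onto 0.3% PEI-soaked filters, cold Tris-HCl pH 7.4 washes and scintillation counting; non-specific binding from reference ligand wells.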

Human Melanocortin (MC3) = biological target: T3, Human Melanocortin (MC3) (Homo sapiens, UniProt P41968); assay: Radioligand binding, human melanocortin MC3 membranes, FlashPlate, [125I]-NDP-αMSH; conditions: compound at 10 μM; [125I]-NDP-αMSH
T3 construct: purchased Perkin Elmer Biosignal
Summary of the method: as §1

Human Melanocortin (MC4) = biological target: T4, Human Melanocortin (MC4) (Homo sapiens, UniProt P32245); assay: Radioligand binding, human melanocortin MC4 membranes, FlashPlate, [125I]-NDP-αMSH; conditions: compound at 10 μM; [125I]-NDP-αMSH
T4 construct: purchased Perkin Elmer Biosignal
Summary of the method: as §1

Human melanocortin (MC5) = biological target: T5, Human melanocortin (MC5) (Homo sapiens, UniProt P33032); assay: Radioligand binding, human melanocortin MC5 membranes, FlashPlate, [125I]-NDP-αMSH; conditions: compound at 10 μM; [125I]-NDP-αMSH
T5 construct: purchased Perkin Elmer Biosignal
Summary of the method: as §1

[1] = biological target: T6, Human melanin-concentrating hormone (MCH1) (Homo sapiens, UniProt Q99705); assay: Radioligand binding, human melanin-concentrating hormone MCH1 membranes, FlashPlate, [125I]-S36057; conditions: compound at 10 μM; [125I]-S36057
T6 construct: purchased Perkin Elmer Biosignal
Summary of the method: as §1

Human μ-opioid (MOP) = biological target: T7, Human μ-opioid (MOP) (Homo sapiens, UniProt P35372); assay: Radioligand binding, human μ-opioid (MOP) membranes, FlashPlate, [3H]-Naloxone; conditions: compound at 10 μM; [3H]-Naloxone
T7 construct: purchased Perkin Elmer Biosignal
Summary of the method: as §1

Human neurokinin (NK1) = biological target: T8, Human neurokinin (NK1) (Homo sapiens, UniProt P25103); assay: Radioligand binding, human neurokinin NK1 membranes, filtration, [125I]-Substance P; conditions: compound at 10 μM; [125I]-Substance P
T8 construct: purchased Perkin Elmer Biosignal
Summary of the method: as §2

[2] = biological target: T9, Human neuropeptide Y (NPY-Y1) (Homo sapiens, UniProt P25929); assay: Radioligand binding, human neuropeptide Y NPY-Y1 membranes, FlashPlate, [125I]-PYY; conditions: compound at 10 μM; [125I]-PYY
T9 construct: purchased Perkin Elmer Biosignal
T9 sequence (P25929 1-384): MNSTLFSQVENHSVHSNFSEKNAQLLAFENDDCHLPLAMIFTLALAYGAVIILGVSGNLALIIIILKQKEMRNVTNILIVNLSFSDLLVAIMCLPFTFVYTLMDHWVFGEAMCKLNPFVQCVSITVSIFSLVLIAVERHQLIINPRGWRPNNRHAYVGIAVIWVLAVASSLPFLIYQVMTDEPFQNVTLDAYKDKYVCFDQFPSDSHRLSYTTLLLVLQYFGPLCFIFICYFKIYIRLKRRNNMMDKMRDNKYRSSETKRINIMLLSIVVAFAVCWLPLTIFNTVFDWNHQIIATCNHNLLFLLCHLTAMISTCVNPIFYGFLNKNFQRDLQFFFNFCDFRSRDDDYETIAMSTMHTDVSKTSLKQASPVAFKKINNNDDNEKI
Summary of the method: as §1

Human opioid (ORL1) = biological target: T10, Human opioid (ORL1) (Homo sapiens, UniProt P41146); assay: Radioligand binding, human opioid ORL1 membranes, FlashPlate, [125I]-Nociceptin; conditions: compound at 10 μM; [125I]-Nociceptin
T10 construct: purchased Perkin Elmer Biosignal
Summary of the method: as §1

Mouse urotensin (mUR2) = biological target: T11, Mouse urotensin (mUR2) (Mus musculus, UniProt Q8VIH9); assay: Radioligand binding, mouse urotensin mUR2 membranes, FlashPlate, [125I]-Urotensin II; conditions: compound at 10 μM; [125I]-Urotensin II
T11 construct: purchased Perkin Elmer Biosignal
T11 sequence (Q8VIH9 1-385): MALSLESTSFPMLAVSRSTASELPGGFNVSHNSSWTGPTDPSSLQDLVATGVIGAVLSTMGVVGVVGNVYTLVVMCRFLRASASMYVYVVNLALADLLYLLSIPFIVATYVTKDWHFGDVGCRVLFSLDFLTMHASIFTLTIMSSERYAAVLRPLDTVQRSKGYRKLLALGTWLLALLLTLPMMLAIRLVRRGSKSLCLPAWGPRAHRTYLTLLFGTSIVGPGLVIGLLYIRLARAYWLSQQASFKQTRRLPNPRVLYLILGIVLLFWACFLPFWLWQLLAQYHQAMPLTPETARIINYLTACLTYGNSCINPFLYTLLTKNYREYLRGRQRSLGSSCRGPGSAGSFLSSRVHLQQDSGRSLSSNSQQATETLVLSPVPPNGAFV
Summary of the method: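 Cloned mouse urotensin (mUR2) receptor membranes from Perkin Elmer Biosignal were immobilized in FlashPlate microplates using a proprietary coating. Each well got 19.5 μl buffer, then 0.5 μl of DMSO, reference ligand, or compound. Adding 5 μl of [125I]-Urotensin II, diluted to 5× final concentration in binding buffer, started binding. Plates were sealed with TopSeal-A and incubated 1 hour at room temperature in the dark. Wells were counted for 30 seconds each on a TopCount after a 60-second delay, and percentage inhibition was calculated.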

T8 sequence (P25103 whole entry): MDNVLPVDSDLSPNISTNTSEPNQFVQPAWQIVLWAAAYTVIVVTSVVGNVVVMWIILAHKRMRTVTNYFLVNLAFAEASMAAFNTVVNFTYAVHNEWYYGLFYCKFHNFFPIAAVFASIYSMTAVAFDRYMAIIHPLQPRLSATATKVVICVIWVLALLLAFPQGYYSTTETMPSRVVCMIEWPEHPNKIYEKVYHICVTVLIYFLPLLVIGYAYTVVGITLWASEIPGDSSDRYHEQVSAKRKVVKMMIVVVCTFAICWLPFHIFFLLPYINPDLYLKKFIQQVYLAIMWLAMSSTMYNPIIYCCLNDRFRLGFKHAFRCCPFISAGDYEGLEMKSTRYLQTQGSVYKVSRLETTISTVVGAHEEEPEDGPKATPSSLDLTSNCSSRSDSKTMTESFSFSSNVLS
T3 sequence (P41968 whole entry): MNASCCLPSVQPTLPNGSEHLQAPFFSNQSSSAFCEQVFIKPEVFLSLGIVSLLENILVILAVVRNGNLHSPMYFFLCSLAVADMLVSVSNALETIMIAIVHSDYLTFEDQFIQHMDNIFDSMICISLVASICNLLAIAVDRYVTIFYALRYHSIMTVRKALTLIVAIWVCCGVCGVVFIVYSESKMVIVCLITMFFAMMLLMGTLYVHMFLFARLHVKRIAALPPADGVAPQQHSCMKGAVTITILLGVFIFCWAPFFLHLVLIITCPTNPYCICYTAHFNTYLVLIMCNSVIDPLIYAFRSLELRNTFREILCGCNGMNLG
T7 sequence (P35372 whole entry): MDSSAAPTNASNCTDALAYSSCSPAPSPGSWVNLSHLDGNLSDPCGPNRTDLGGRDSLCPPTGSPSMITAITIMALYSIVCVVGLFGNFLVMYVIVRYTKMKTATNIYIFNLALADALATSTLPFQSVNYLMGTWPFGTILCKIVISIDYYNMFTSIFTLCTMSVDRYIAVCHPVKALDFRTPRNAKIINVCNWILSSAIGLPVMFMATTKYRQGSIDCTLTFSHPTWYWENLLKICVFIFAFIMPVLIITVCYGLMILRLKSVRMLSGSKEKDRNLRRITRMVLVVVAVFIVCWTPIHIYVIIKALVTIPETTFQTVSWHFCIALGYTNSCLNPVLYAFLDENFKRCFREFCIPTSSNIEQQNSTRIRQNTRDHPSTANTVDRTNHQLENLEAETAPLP
T5 sequence (P33032 whole entry): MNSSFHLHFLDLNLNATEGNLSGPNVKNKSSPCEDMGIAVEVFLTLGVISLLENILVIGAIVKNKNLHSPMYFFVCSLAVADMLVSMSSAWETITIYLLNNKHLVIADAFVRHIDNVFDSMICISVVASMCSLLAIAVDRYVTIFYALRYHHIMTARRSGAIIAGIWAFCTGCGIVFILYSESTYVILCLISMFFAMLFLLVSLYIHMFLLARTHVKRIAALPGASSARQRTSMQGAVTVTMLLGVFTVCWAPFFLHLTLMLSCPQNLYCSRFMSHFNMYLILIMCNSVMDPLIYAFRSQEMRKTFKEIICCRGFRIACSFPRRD
T6 sequence (Q99705 whole entry): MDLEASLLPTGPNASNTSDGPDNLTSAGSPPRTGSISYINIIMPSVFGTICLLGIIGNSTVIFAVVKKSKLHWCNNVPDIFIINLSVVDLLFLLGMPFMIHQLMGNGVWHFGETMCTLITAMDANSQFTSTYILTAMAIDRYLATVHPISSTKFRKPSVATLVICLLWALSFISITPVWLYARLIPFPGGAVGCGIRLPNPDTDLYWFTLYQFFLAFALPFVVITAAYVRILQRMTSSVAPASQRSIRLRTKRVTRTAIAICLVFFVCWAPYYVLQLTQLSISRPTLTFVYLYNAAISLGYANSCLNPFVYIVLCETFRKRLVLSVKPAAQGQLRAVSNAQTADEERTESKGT
T4 sequence (P32245 whole entry): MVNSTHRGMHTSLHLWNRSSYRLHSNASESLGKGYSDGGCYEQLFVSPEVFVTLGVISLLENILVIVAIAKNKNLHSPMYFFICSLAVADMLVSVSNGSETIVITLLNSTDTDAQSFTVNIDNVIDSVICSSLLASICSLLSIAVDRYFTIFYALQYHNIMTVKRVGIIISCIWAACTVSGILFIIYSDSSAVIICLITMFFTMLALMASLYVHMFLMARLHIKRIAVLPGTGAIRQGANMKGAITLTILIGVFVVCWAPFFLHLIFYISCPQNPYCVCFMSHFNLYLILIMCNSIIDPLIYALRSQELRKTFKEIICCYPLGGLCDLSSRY
T1 sequence (P41143 whole entry): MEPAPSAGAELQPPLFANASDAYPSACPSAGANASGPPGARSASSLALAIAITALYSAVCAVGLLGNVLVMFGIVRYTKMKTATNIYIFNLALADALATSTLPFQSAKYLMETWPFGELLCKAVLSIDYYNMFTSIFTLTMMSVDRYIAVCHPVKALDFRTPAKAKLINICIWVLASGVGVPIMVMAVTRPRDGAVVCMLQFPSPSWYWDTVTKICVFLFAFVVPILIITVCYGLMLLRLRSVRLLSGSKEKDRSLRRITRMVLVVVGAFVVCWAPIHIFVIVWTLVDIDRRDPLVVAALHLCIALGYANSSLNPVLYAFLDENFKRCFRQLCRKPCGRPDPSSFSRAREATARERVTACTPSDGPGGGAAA
T2 sequence (P41145 whole entry): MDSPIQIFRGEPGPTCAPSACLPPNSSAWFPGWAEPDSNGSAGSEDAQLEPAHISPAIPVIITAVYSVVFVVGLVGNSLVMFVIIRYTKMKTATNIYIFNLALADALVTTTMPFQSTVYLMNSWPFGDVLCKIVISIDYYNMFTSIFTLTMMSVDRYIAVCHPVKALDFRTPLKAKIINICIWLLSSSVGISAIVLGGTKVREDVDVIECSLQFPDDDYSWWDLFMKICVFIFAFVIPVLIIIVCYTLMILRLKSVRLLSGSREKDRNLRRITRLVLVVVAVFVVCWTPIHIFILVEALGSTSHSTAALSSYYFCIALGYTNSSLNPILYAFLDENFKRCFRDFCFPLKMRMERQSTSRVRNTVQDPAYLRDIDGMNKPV
T10 sequence (P41146 whole entry): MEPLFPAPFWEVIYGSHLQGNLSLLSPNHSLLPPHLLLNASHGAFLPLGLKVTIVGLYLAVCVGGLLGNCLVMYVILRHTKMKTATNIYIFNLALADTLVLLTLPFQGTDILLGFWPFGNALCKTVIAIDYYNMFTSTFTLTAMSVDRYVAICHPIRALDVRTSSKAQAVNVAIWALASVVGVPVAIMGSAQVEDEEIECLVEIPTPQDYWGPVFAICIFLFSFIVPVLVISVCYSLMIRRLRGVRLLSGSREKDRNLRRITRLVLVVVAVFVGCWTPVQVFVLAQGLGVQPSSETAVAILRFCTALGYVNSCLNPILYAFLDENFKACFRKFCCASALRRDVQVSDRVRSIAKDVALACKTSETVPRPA

SMILES: COC[C@H]1OC(OCc2ccc3ccccc3c2)[C@H](NC(=O)CCCNC(=N)N)[C@@H](OCc2ccc3ccccc3c2)[C@@H]1O (stereo partly shown) [compound 339]
- A1: inhibition of radioligand binding, human δ-opioid (DOP) (Human δ-opioid (DOP)): − (“−” indicates less than 50% inhibition at 10 μM)
- A2: inhibition of radioligand binding, human κ-opioid (KOP) (Human κ-Opioid (KOP)): − (“−” indicates less than 50% inhibition at 10 μM)
- A3: inhibition of radioligand binding, human melanocortin (MC3) (Human Melanocortin (MC3)): − (“−” indicates less than 50% inhibition at 10 μM)
- A4: inhibition of radioligand binding, human melanocortin (MC4) (Human Melanocortin (MC4)): + (“+” indicates greater than 50% inhibition at 10 μM)
- A5: inhibition of radioligand binding, human melanocortin (MC5) (Human melanocortin (MC5)): + (“+” indicates greater than 50% inhibition at 10 μM)
- A6: inhibition of radioligand binding, human melanin-concentrating hormone (MCH1) [1]: + (“+” indicates greater than 50% inhibition at 10 μM)
- A7: inhibition of radioligand binding, human μ-opioid (MOP) (Human μ-opioid (MOP)): + (“+” indicates greater than 50% inhibition at 10 μM)
- A8: inhibition of radioligand binding, human neurokinin (NK1) (Human neurokinin (NK1)): + (“+” indicates greater than 50% inhibition at 10 μM)
- A9: inhibition of radioligand binding, human neuropeptide Y (NPY-Y1) [2]: − (“−” indicates less than 50% inhibition at 10 μM)
- A10: inhibition of radioligand binding, human opioid (ORL1) (Human opioid (ORL1)): − (“−” indicates less than 50% inhibition at 10 μM)
- A11: inhibition of radioligand binding, mouse urotensin (mUR2) (Mouse urotensin (mUR2)): − (“−” indicates less than 50% inhibition at 10 μM)

SMILES: COC[C@H]1OC(OCc2ccc3ccccc3c2)[C@H](NC(=O)CCCN)[C@@H](OCc2ccc(Cl)cc2)[C@@H]1O (stereo partly shown) [compound 340]
- A1: inhibition of radioligand binding, human δ-opioid (DOP) (Human δ-opioid (DOP)): − (“−” indicates less than 50% inhibition at 10 μM)
- A2: inhibition of radioligand binding, human κ-opioid (KOP) (Human κ-Opioid (KOP)): − (“−” indicates less than 50% inhibition at 10 μM)
- A3: inhibition of radioligand binding, human melanocortin (MC3) (Human Melanocortin (MC3)): − (“−” indicates less than 50% inhibition at 10 μM)
- A4: inhibition of radioligand binding, human melanocortin (MC4) (Human Melanocortin (MC4)): − (“−” indicates less than 50% inhibition at 10 μM)
- A5: inhibition of radioligand binding, human melanocortin (MC5) (Human melanocortin (MC5)): − (“−” indicates less than 50% inhibition at 10 μM)
- A6: inhibition of radioligand binding, human melanin-concentrating hormone (MCH1) [1]: − (“−” indicates less than 50% inhibition at 10 μM)
- A7: inhibition of radioligand binding, human μ-opioid (MOP) (Human μ-opioid (MOP)): − (“−” indicates less than 50% inhibition at 10 μM)
- A8: inhibition of radioligand binding, human neurokinin (NK1) (Human neurokinin (NK1)): + (“+” indicates greater than 50% inhibition at 10 μM)
- A9: inhibition of radioligand binding, human neuropeptide Y (NPY-Y1) [2]: − (“−” indicates less than 50% inhibition at 10 μM)
- A10: inhibition of radioligand binding, human opioid (ORL1) (Human opioid (ORL1)): − (“−” indicates less than 50% inhibition at 10 μM)
- A11: inhibition of radioligand binding, mouse urotensin (mUR2) (Mouse urotensin (mUR2)): − (“−” indicates less than 50% inhibition at 10 μM)

SMILES: COC[C@H]1OC(OCc2ccc3ccccc3c2)[C@H](NC(=O)CCCNC(=N)N)[C@@H](OCc2ccc(Cl)cc2)[C@@H]1O (stereo partly shown) [compound 341]
- A1: inhibition of radioligand binding, human δ-opioid (DOP) (Human δ-opioid (DOP)): − (“−” indicates less than 50% inhibition at 10 μM)
- A2: inhibition of radioligand binding, human κ-opioid (KOP) (Human κ-Opioid (KOP)): − (“−” indicates less than 50% inhibition at 10 μM)
- A3: inhibition of radioligand binding, human melanocortin (MC3) (Human Melanocortin (MC3)): − (“−” indicates less than 50% inhibition at 10 μM)
- A4: inhibition of radioligand binding, human melanocortin (MC4) (Human Melanocortin (MC4)): − (“−” indicates less than 50% inhibition at 10 μM)
- A5: inhibition of radioligand binding, human melanocortin (MC5) (Human melanocortin (MC5)): − (“−” indicates less than 50% inhibition at 10 μM)
- A6: inhibition of radioligand binding, human melanin-concentrating hormone (MCH1) [1]: + (“+” indicates greater than 50% inhibition at 10 μM)
- A7: inhibition of radioligand binding, human μ-opioid (MOP) (Human μ-opioid (MOP)): + (“+” indicates greater than 50% inhibition at 10 μM)
- A8: inhibition of radioligand binding, human neurokinin (NK1) (Human neurokinin (NK1)): + (“+” indicates greater than 50% inhibition at 10 μM)
- A9: inhibition of radioligand binding, human neuropeptide Y (NPY-Y1) [2]: − (“−” indicates less than 50% inhibition at 10 μM)
- A10: inhibition of radioligand binding, human opioid (ORL1) (Human opioid (ORL1)): − (“−” indicates less than 50% inhibition at 10 μM)
- A11: inhibition of radioligand binding, mouse urotensin (mUR2) (Mouse urotensin (mUR2)): − (“−” indicates less than 50% inhibition at 10 μM)

SMILES: COC[C@H]1OC(OCc2ccc(Cl)cc2)[C@H](NC(=O)CCCN)[C@@H](OCc2ccc(-c3ccccc3)cc2)[C@@H]1O (stereo partly shown) [compound 342]
- A1: inhibition of radioligand binding, human δ-opioid (DOP) (Human δ-opioid (DOP)): − (“−” indicates less than 50% inhibition at 10 μM)
- A2: inhibition of radioligand binding, human κ-opioid (KOP) (Human κ-Opioid (KOP)): − (“−” indicates less than 50% inhibition at 10 μM)
- A3: inhibition of radioligand binding, human melanocortin (MC3) (Human Melanocortin (MC3)): − (“−” indicates less than 50% inhibition at 10 μM)
- A4: inhibition of radioligand binding, human melanocortin (MC4) (Human Melanocortin (MC4)): + (“+” indicates greater than 50% inhibition at 10 μM)
- A5: inhibition of radioligand binding, human melanocortin (MC5) (Human melanocortin (MC5)): − (“−” indicates less than 50% inhibition at 10 μM)
- A6: inhibition of radioligand binding, human melanin-concentrating hormone (MCH1) [1]: − (“−” indicates less than 50% inhibition at 10 μM)
- A7: inhibition of radioligand binding, human μ-opioid (MOP) (Human μ-opioid (MOP)): + (“+” indicates greater than 50% inhibition at 10 μM)
- A8: inhibition of radioligand binding, human neurokinin (NK1) (Human neurokinin (NK1)): + (“+” indicates greater than 50% inhibition at 10 μM)
- A9: inhibition of radioligand binding, human neuropeptide Y (NPY-Y1) [2]: − (“−” indicates less than 50% inhibition at 10 μM)
- A10: inhibition of radioligand binding, human opioid (ORL1) (Human opioid (ORL1)): − (“−” indicates less than 50% inhibition at 10 μM)
- A11: inhibition of radioligand binding, mouse urotensin (mUR2) (Mouse urotensin (mUR2)): − (“−” indicates less than 50% inhibition at 10 μM)

SMILES: COC1C(O)C(COCc2ccc3ccccc3c2)OC(OCc2ccc(Cl)cc2)C1NC(=O)C1CCCN1 (stereo not shown) [compound 347]
- A1: inhibition of radioligand binding, human δ-opioid (DOP) (Human δ-opioid (DOP)): − (“−” indicates less than 50% inhibition at 10 μM)
- A2: inhibition of radioligand binding, human κ-opioid (KOP) (Human κ-Opioid (KOP)): − (“−” indicates less than 50% inhibition at 10 μM)
- A3: inhibition of radioligand binding, human melanocortin (MC3) (Human Melanocortin (MC3)): − (“−” indicates less than 50% inhibition at 10 μM)
- A4: inhibition of radioligand binding, human melanocortin (MC4) (Human Melanocortin (MC4)): − (“−” indicates less than 50% inhibition at 10 μM)
- A5: inhibition of radioligand binding, human melanocortin (MC5) (Human melanocortin (MC5)): − (“−” indicates less than 50% inhibition at 10 μM)
- A6: inhibition of radioligand binding, human melanin-concentrating hormone (MCH1) [1]: − (“−” indicates less than 50% inhibition at 10 μM)
- A7: inhibition of radioligand binding, human μ-opioid (MOP) (Human μ-opioid (MOP)): − (“−” indicates less than 50% inhibition at 10 μM)
- A8: inhibition of radioligand binding, human neurokinin (NK1) (Human neurokinin (NK1)): + (“+” indicates greater than 50% inhibition at 10 μM)
- A9: inhibition of radioligand binding, human neuropeptide Y (NPY-Y1) [2]: − (“−” indicates less than 50% inhibition at 10 μM)
- A10: inhibition of radioligand binding, human opioid (ORL1) (Human opioid (ORL1)): − (“−” indicates less than 50% inhibition at 10 μM)
- A11: inhibition of radioligand binding, mouse urotensin (mUR2) (Mouse urotensin (mUR2)): − (“−” indicates less than 50% inhibition at 10 μM)
